The results in this text go back to patent publication US11312723B2, “Pyranopyrazole and pyrazolopyridine immunomodulators for treatment of autoimmune diseases” (The Rockefeller University, priority 2017, dated 2022).

Chain of Human FXIIa (P00748 373-615): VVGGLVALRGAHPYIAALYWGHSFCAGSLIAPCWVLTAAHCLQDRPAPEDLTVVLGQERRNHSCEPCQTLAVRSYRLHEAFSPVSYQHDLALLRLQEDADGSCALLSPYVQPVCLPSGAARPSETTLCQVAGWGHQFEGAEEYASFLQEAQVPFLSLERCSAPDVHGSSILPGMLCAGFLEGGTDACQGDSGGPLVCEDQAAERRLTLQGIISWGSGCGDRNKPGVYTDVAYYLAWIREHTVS
Chain of Human FXIIa (P00748 20-372 partner): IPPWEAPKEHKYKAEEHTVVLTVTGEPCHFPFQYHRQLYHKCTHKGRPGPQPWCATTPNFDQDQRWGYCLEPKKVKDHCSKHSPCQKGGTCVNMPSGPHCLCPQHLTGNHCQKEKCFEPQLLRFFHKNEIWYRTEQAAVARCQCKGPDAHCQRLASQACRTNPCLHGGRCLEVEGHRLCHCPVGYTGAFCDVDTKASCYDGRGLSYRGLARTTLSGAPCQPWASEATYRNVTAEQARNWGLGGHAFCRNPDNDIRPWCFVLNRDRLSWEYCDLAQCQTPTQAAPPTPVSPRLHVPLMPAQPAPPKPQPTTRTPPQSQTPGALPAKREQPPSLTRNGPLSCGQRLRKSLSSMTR

The first assay has as its target Human FXIIa (Homo sapiens (Human), UniProt P00748). As to the kind of experiment: Factor XIIa (FXIIa) inhibitory activity, chromogenic substrate (Pefachrome XIIa) cleavage. Type of assay: biochemical. As to conditions: 10 min pre-incubation, Pefachrome XIIa 400 μM.
As for `Nc1c2c(nn1C(=O)C1CCNc3ccccc31)CN(C(=O)OCc1ccccc1)CC2` (centres unmarked) [Example 116, benzyl 3-amino-2-(1,2,3,4-tetrahydro-quinoline-4-carbonyl)-4,5-dihydro-2H-pyrazolo[3,4-c]pyridine-6(7H)-carboxylate], the IC50 turned out to be 1 µM. In other words, the single-digit micromolar range.

The molecule `CC(C)CN1CCc2c(nn(C(=O)C3CCNc4ccc(F)cc43)c2N)C1` (centres unmarked) [Example 153, (3-amino-6-isobutyl-4,5,6,7-tetrahydro-pyrazolo[3,4-c]pyridin-2-yl)(6-fluoro-1,2,3,4-tetrahydro-quinolin-4-yl)methanone] gave an IC50 of 0.05 µM. This IC50 is about 20-fold lower than that of the molecule before.

Turning to `CC1(C)CC(C(=O)n2nc3c(c2N)CCN(S(C)(=O)=O)C3)c2ccccc2N1` (centres unmarked) [Example 39, (3-amino-6-(methylsulfonyl)-4,5,6,7-tetrahydropyrazolo[3,4-c]pyridin-2-yl)(2,2-dimethyl-1,2,3,4-tetrahydroquinolin-4-yl)methanone], the 50% inhibitory concentration (IC50) was determined as 0.15 µM. Compared with the last molecule, the IC50 is about 3-fold higher.

Consider `CS(=O)(=O)N1CCc2c(N)nn(C(=O)C3CCNc4ccc(C(F)(F)F)cc43)c2C1` (centres unmarked) [Example 25, (3-amino-6-(methylsulfonyl)-4,5,6,7-tetrahydropyrazolo[3,4-c]pyridin-1-yl)(6-(trifluoromethyl)-1,2,3,4-tetrahydroquinolin-4-yl)methanone], for which the IC50 was 40 µM.

`Nc1c2c(nn1C(=O)C1CCNc3ccc(F)cc31)CN(c1ccccn1)CC2` (centres unmarked) [Example 167, (3-amino-6-(pyridin-2-yl)-4,5,6,7-tetrahydro-pyrazolo[3,4-c]pyridin-2-yl)(6-fluoro-1,2,3,4-tetrahydro-quinolin-4-yl)methanone] displayed an IC50 of 60 µM.

`CS(=O)(=O)N1CCc2c(N)nn(C(=O)C3CCNc4c(Cl)cccc43)c2C1` (centres unmarked) [Example 58, (3-amino-6-(methylsulfonyl)-4,5,6,7-tetrahydropyrazolo[3,4-c]pyridin-1-yl)(8-chloro-1,2,3,4-tetrahydroquinolin-4-yl)methanone] registered an IC50 of 60 µM. This lies in the double-digit micromolar range.

For the molecule `CCN1CCc2c(N)nn(C(=O)C3CCNc4c(C)cccc43)c2C1` (centres unmarked) [Example 175, (3-amino-6-ethyl-4,5,6,7-tetrahydro-pyrazolo[3,4-c]pyridin-1-yl)(8-methyl-1,2,3,4-tetrahydro-quinolin-4-yl)methanone], the IC50 was 50 µM.

`CS(=O)(=O)N1CCc2c(N)nn(C(=O)C3CCNc4ccc(F)cc43)c2C1` (centres unmarked) [Example 17, (3-amino-6-(methylsulfonyl)-4,5,6,7-tetrahydropyrazolo[3,4-c]pyridin-1-yl)(6-fluoro-1,2,3,4-tetrahydroquinolin-4-yl)methanone]: it took 30 µM to reach half-maximal inhibition (IC50).

In turn, `CCN1CCc2c(nn(C(=O)[C@@H]3CCNc4c(C)cc(F)cc43)c2N)C1` (single isomer, unassigned) [Example 171, (R*)-(3-amino-6-ethyl-4,5,6,7-tetrahydro-pyrazolo[3,4-c]pyridin-2-yl)(6-fluoro-8-methyl-1,2,3,4-tetrahydro-quinolin-4-yl)methanone] yielded an IC50 of 4.5 µM.

Consider `CCc1cc2c([nH]1)CCCC2C(=O)n1nc(N)c2c1CCN(C(=O)OCc1ccccc1)C2` (centres unmarked) [Example 5, benzyl 3-amino-1-(2-ethyl-4,5,6,7-tetrahydro-1H-indole-4-carbonyl)-6,7-dihydro-1H-pyrazolo[4,3-c]pyridine-5(4H)-carboxylate], for which the IC50 was more than 40 µM.

The molecule `Nc1c2c(nn1C(=O)[C@H]1CCNc3c(Cl)cccc31)COCC2` (single isomer, unassigned) [Example 202, (S*)-(3-amino-4,5-dihydropyrano[3,4-c]pyrazol-2(7H)-yl)(8-chloro-1,2,3,4-tetrahydro-quinolin-4-yl)methanone] had an IC50 of 0.09 µM.

Take `CCN1CCc2c(N)nn(C(=O)C3CCNc4ccc(F)cc43)c2C1` (centres unmarked) [Example 164, (3-amino-6-ethyl-4,5,6,7-tetrahydro-pyrazolo[3,4-c]pyridin-1-yl)(6-fluoro-1,2,3,4-tetrahydro-quinolin-4-yl)methanone]: the IC50 came out at 12 µM. This IC50 lies about 130-fold higher than the previous one.

On to `CS(=O)(=O)N1CCc2c(nn(C(=O)[C@@H]3CCNc4ccccc43)c2N)C1` (single isomer, unassigned) [Example 134, (R*)-(3-amino-6-(methylsulfonyl)-4,5,6,7-tetrahydro-pyrazolo[3,4-c]pyridin-2-yl)(1,2,3,4-tetrahydro-quinolin-4-yl)methanone], for which the IC50 worked out at 28 µM.

The molecule `CCN1CCc2c(nn(C(=O)[C@@H]3CCNc4c(C)cccc43)c2N)C1` (single isomer, unassigned) [Example 174, (R*)-(3-amino-6-ethyl-4,5,6,7-tetrahydro-pyrazolo[3,4-c]pyridin-2-yl)(8-methyl-1,2,3,4-tetrahydro-quinolin-4-yl)methanone] displayed an IC50 of 8 µM.

In the case of `Cc1cccc2c1NCC[C@H]2C(=O)n1nc2c(c1N)CCN(S(=O)(=O)C1CCC1)C2` (single isomer, unassigned) [Example 183, (R*)-(3-amino-6-(cyclobutyl-sulfonyl)-4,5,6,7-tetrahydro-pyrazolo[3,4-c]pyridin-2-yl)(8-methyl-1,2,3,4-tetrahydro-quinolin-4-yl)methanone], the IC50 is 35 µM.

For the molecule `CS(=O)(=O)N1CCc2c(nn(C(=O)C3CCNc4ccc(F)cc43)c2N)C1` (single isomer, unassigned) [Example 19, (R*)-(3-amino-6-(methylsulfonyl)-4,5,6,7-tetrahydropyrazolo[3,4-c]pyridin-2-yl)(6-fluoro-1,2,3,4-tetrahydroquinolin-4-yl)methanone], the IC50 came to 11 µM.

With `COC(=O)N1CCc2c(c(N)nn2C(=O)C2CCNc3ccccc32)C1` (centres unmarked) [Example 88, methyl 3-amino-1-(1,2,3,4-tetrahydro-quinoline-4-carbonyl)-6,7-dihydro-1H-pyrazolo[4,3-c]pyridine-5(4H)-carboxylate], it took 80 µM to reach half-maximal inhibition (IC50).

In turn, `Cn1cc2c(c1)C(C(=O)n1nc(N)c3c1CN(S(C)(=O)=O)CC3)CCC2` (centres unmarked) [Example 27, (3-amino-6-(methylsulfonyl)-4,5,6,7-tetrahydropyrazolo[3,4-c]pyridin-1-yl)(2-methyl-4,5,6,7-tetrahydro-2H-isoindol-4-yl)methanone] yielded a half-maximal inhibitory concentration (IC50) of 75 µM.

`Cc1cccc2c1NCCC2C(=O)n1nc2c(c1N)CCN(S(C)(=O)=O)C2` (single isomer, unassigned) [Example 36, (R*)-(3-amino-6-(methylsulfonyl)-4,5,6,7-tetrahydropyrazolo[3,4-c]pyridin-2-yl)(8-methyl-1,2,3,4-tetrahydroquinolin-4-yl)methanone]: half-maximal inhibition (IC50) required 17 µM.

For `Nc1c2c(nn1C(=O)C1CCNc3ccc(F)cc31)CN(S(=O)(=O)c1ccncc1)CC2` (centres unmarked) [Example 155, (3-amino-6-(pyridin-4-ylsulfonyl)-4,5,6,7-tetrahydro-pyrazolo[3,4-c]pyridin-2-yl)(6-fluoro-1,2,3,4-tetrahydro-quinolin-4-yl)methanone], the half-maximal inhibitory concentration (IC50) came out at 1.2 µM.

Consider `Cc1cccc2c1NCCC2C(=O)n1nc(N)c2c1CN(S(=O)(=O)C1CCC1)CC2` (centres unmarked) [Example 184], for which half-maximal inhibition (IC50) required 11 µM.

Molecule `CCCN1CCc2c(N)nn(C(=O)C3CCNc4ccc(F)cc43)c2C1` (centres unmarked) [Example 150, (3-amino-6-propyl-4,5,6,7-tetrahydro-pyrazolo[3,4-c]pyridin-1-yl)(6-fluoro-1,2,3,4-tetrahydro-quinolin-4-yl)methanone] registered an IC50 of more than 70 µM.

The molecule `Nc1nn(C(=O)C2CCNc3ccc(F)cc32)c2c1CCNC2` (centres unmarked) [Example 148, (3-amino-4,5,6,7-tetrahydro-pyrazolo[3,4-c]pyridin-1-yl)(6-fluoro-1,2,3,4-tetrahydro-quinolin-4-yl)methanone] returned an IC50 of 20 µM.

The molecule `Cc1cc(F)cc2c1NCCC2C(=O)n1nc2c(c1N)CCN(S(C)(=O)=O)C2` (single isomer, unassigned) [Example 54, (R*)-(3-amino-6-(methylsulfonyl)-4,5,6,7-tetrahydropyrazolo[3,4-c]pyridin-2-yl)(6-fluoro-8-methyl-1,2,3,4-tetrahydroquinolin-4-yl)methanone] returned an IC50 of 2.5 µM.

`CCc1ccc2c(c1)C(C(=O)n1nc3c(c1N)CCN(S(C)(=O)=O)C3)CCN2` (single isomer, unassigned) [Example 32, (S*)-(3-amino-6-(methylsulfonyl)-4,5,6,7-tetrahydropyrazolo[3,4-c]pyridin-2-yl)(6-ethyl-1,2,3,4-tetrahydroquinolin-4-yl)methanone]: half-maximal inhibition (IC50) was put at 0.02 µM. Against the preceding molecule, the IC50 is about 120-fold lower.

In the case of `Cc1cc2c(C(=O)n3nc(N)c4c3CN(C(=O)OC(C)(C)C)CC4)cccc2[nH]1` [Example 8, tert-butyl 3-amino-1-(2-methyl-1H-indole-4-carbonyl)-4,5-dihydro-1H-pyrazolo[3,4-c]pyridine-6(7H)-carboxylate], it took 50 µM to reach half-maximal inhibition (IC50).

On to `CS(=O)(=O)N1CCc2c(nn(C(=O)C3CCCc4[nH]c(Cl)cc43)c2N)C1` (single isomer, unassigned) [Example 132, (R*)-(3-amino-6-(methylsulfonyl)-4,5,6,7-tetrahydro-pyrazolo[3,4-c]pyridin-2-yl)(2-chloro-4,5,6,7-tetrahydro-1H-indol-4-yl)methanone], for which the IC50 came out at 3 µM.

The target of another assay is Human alpha-thrombin (Homo sapiens (Human), UniProt P00734). As to the kind of experiment: Thrombin counterscreen for selectivity, fluorogenic substrate cleavage. The conditions noted are these: 10 min pre-incubation, Boc-Val-Pro-Arg-AMC 20 μM. Format: biochemical. The method, then: Counterscreens for Selectivity:
Thrombin. In a 96-well white opaque plate, 80 μl of assay buffer was added to each well. Test compounds were added, and serially diluted as above, to generate a concentration range of approximately 1-100 μM. Human alpha-thrombin (Enzyme Research Labs) was diluted in assay buffer to a final concentration of 12.5 nM. 80 μl of this enzyme solution was added to the assay wells. The enzyme/compound mixtures were incubated for 10 minutes at room temperature. Fluorogenic substrate (Boc-Val-Pro-Arg-7-amido-4-methylcoumarin; Sigma) was added to assay wells at a final concentration of 20 μM. The assay plate was spun for 1 minute at 1500 g and then read at 37° C. in a SpectraMax M2 plate reader (λex=380 nm and λem=460 nm). Activity was quantified as the rate of change in fluorescence, which corresponds to the rate of substrate cleavage. IC50 values were determined as the concentration of inhibitor that produced 50% of the rate of change of control wells without any inhibitor. For compounds with activity <1 μM, the assay was repeated with a lower concentration range, typically from 10-1000 nM.
As to `Nc1c2c(nn1C(=O)C1CCNc3ccccc31)CN(C(=O)OCc1ccccc1)CC2` (centres unmarked) [Example 116, benzyl 3-amino-2-(1,2,3,4-tetrahydro-quinoline-4-carbonyl)-4,5-dihydro-2H-pyrazolo[3,4-c]pyridine-6(7H)-carboxylate], inhibition was half-maximal at 17 µM (IC50).

`CC(C)CN1CCc2c(nn(C(=O)C3CCNc4ccc(F)cc43)c2N)C1` (centres unmarked) [Example 153, (3-amino-6-isobutyl-4,5,6,7-tetrahydro-pyrazolo[3,4-c]pyridin-2-yl)(6-fluoro-1,2,3,4-tetrahydro-quinolin-4-yl)methanone] registered a half-inhibitory concentration (IC50) of more than 100 µM.

Regarding `CC1(C)CC(C(=O)n2nc3c(c2N)CCN(S(C)(=O)=O)C3)c2ccccc2N1` (centres unmarked) [Example 39, (3-amino-6-(methylsulfonyl)-4,5,6,7-tetrahydropyrazolo[3,4-c]pyridin-2-yl)(2,2-dimethyl-1,2,3,4-tetrahydroquinolin-4-yl)methanone], the IC50 worked out at 45 µM.

On to `CS(=O)(=O)N1CCc2c(N)nn(C(=O)C3CCNc4ccc(C(F)(F)F)cc43)c2C1` (centres unmarked) [Example 25, (3-amino-6-(methylsulfonyl)-4,5,6,7-tetrahydropyrazolo[3,4-c]pyridin-1-yl)(6-(trifluoromethyl)-1,2,3,4-tetrahydroquinolin-4-yl)methanone], for which the IC50 is more than 70 µM.

`Nc1c2c(nn1C(=O)C1CCNc3ccc(F)cc31)CN(c1ccccn1)CC2` (centres unmarked) [Example 167, (3-amino-6-(pyridin-2-yl)-4,5,6,7-tetrahydro-pyrazolo[3,4-c]pyridin-2-yl)(6-fluoro-1,2,3,4-tetrahydro-quinolin-4-yl)methanone]: the IC50 is more than 120 µM.
